Experimental findings from patent US9683253B2, “Method and device for identifying cells” (IMEC, priority 2013, dated 2017) are described below.

The subject of one experiment is MCF7 cells. The format is cell-based.
In the next experiment the test system is PBMC. Type of experiment: cell-based.

Turning to SLO, in the experiment with MCF7 cells, the “dose dependence of change in Fc” value is on record as “the higher the dose, the bigger the change in the Fc” and the “recovered Fc versus native Fc” value is on record as “increases higher than the native Fc”. Besides, the “recovered Fc versus native Fc” value with PBMC is listed as “drops to a lower value than the native Fc”.
